# Results taken from US6335373B1, “Process to produce stabilized carnosic acid in high concentration” (Lycored Natural Products Industries, Ltd., priority 2000, dated 2002).
# Tests used:
# [1] = tested on: stephilococus; settings: against stephilococus and dental caries, reported; cited from earlier work
# [2] = identified by Brieskorn and Domling in 1964; cited from earlier work
# [3] = Stabilization of carnosic acid in 60% ethanol rosemary extract with added acids, kept in the dark; assay type: physicochemical
# Experimental: To 4.0 litre of ethanol (60%) are added 500 gr. of dried and finely ground rosemary leaves, having a concentration of 4.3% carnosic acid. Extraction is done for 3 hours at room temperature. 3.22 litre of extract are obtained by vacuum filtration of the biomass. The concentrate is divided to 200 ml. portions where different acids at various concentrations are added to these portions. All portions are kept in the dark and the variations in the carnosic acid concentrations of the different portions are checked. […] Only under acidic conditions is the concentration of carnosic acid retained where the optimal acids are phosphoric and ascorbic acid.
# [4] = Exposure of carnosic acid in an extract to room temperature and light; assay type: physicochemical; settings: pH of the extract above 6
compound,measurement,setting,value
CC(C)c1cc2c(c(O)c1O)[C@@]1(C(=O)O)CCCC(C)(C)[C@@H]1CC2 [carnosic acid],antibiotic action,[1],antibiotic action
same,antioxidant activity,[2],very potent antioxidant
same,Concentration of Carnosic,"[3]; Acetic 1%, +2 Hours",4770 µg/mL
same,Concentration of Carnosic,"[3]; Acetic 1%, +5 Hours",4740 µg/mL
same,Concentration of Carnosic,"[3]; Acetic 1%, +1 hour",4760 µg/mL
same,Concentration of Carnosic,"[3]; Acetic 1%, +24 hour",4590 µg/mL
same,Concentration of Carnosic,"[3]; Acetic 1%, +48 hours",4260 µg/mL
same,Concentration of Carnosic,"[3]; Acetic 1%, Time Zero",4800 µg/mL
same,Concentration of Carnosic,"[3]; Acetic 2%, +2 Hours",4690 µg/mL
same,Concentration of Carnosic,"[3]; Acetic 2%, +5 Hours",4710 µg/mL
same,Concentration of Carnosic,"[3]; Acetic 2%, +1 hour",4790 µg/mL
same,Concentration of Carnosic,"[3]; Acetic 2%, +24 hour",4490 µg/mL
same,Concentration of Carnosic,"[3]; Acetic 2%, +48 hours",4230 µg/mL
same,Concentration of Carnosic,"[3]; Acetic 2%, Time Zero",4800 µg/mL
same,Concentration of Carnosic,"[3]; Ascorbic 0.05%, +2 Hours",4710 µg/mL
same,Concentration of Carnosic,"[3]; Ascorbic 0.05%, +5 Hours",4680 µg/mL
same,Concentration of Carnosic,"[3]; Ascorbic 0.05%, +1 hour",4750 µg/mL
same,Concentration of Carnosic,"[3]; Ascorbic 0.05%, +24 hour",4780 µg/mL
same,Concentration of Carnosic,"[3]; Ascorbic 0.05%, +48 hours",4790 µg/mL
same,Concentration of Carnosic,"[3]; Ascorbic 0.05%, Time Zero",4800 µg/mL
same,Concentration of Carnosic,"[3]; Ascorbic 0.1%, +2 Hours",4710 µg/mL
same,Concentration of Carnosic,"[3]; Ascorbic 0.1%, +5 Hours",4720 µg/mL
same,Concentration of Carnosic,"[3]; Ascorbic 0.1%, +1 hour",4740 µg/mL
same,Concentration of Carnosic,"[3]; Ascorbic 0.1%, +24 hour",4790 µg/mL
same,Concentration of Carnosic,"[3]; Ascorbic 0.1%, +48 hours",4790 µg/mL
same,Concentration of Carnosic,"[3]; Ascorbic 0.1%, Time Zero",4800 µg/mL
same,Concentration of Carnosic,"[3]; Ascorbic 0.5%, +2 Hours",4830 µg/mL
same,Concentration of Carnosic,"[3]; Ascorbic 0.5%, +5 Hours",4820 µg/mL
same,Concentration of Carnosic,"[3]; Ascorbic 0.5%, +1 hour",4860 µg/mL
same,Concentration of Carnosic,"[3]; Ascorbic 0.5%, +24 hour",4810 µg/mL
same,Concentration of Carnosic,"[3]; Ascorbic 0.5%, +48 hours",4820 µg/mL
same,Concentration of Carnosic,"[3]; Ascorbic 0.5%, Time Zero",4800 µg/mL
same,Concentration of Carnosic,"[3]; Ascorbic 1%, +2 Hours",4840 µg/mL
same,Concentration of Carnosic,"[3]; Ascorbic 1%, +5 Hours",4840 µg/mL
same,Concentration of Carnosic,"[3]; Ascorbic 1%, +1 hour",4830 µg/mL
same,Concentration of Carnosic,"[3]; Ascorbic 1%, +24 hour",4820 µg/mL
same,Concentration of Carnosic,"[3]; Ascorbic 1%, +48 hours",4800 µg/mL
same,Concentration of Carnosic,"[3]; Ascorbic 1%, Time Zero",4800 µg/mL
same,Concentration of Carnosic,"[3]; Citric 0.1%, +2 Hours",4560 µg/mL
same,Concentration of Carnosic,"[3]; Citric 0.1%, +5 Hours",4490 µg/mL
same,Concentration of Carnosic,"[3]; Citric 0.1%, +1 hour",4730 µg/mL
same,Concentration of Carnosic,"[3]; Citric 0.1%, +24 hour",4270 µg/mL
same,Concentration of Carnosic,"[3]; Citric 0.1%, +48 hours",4130 µg/mL
same,Concentration of Carnosic,"[3]; Citric 0.1%, Time Zero",4800 µg/mL
same,Concentration of Carnosic,"[3]; Citric 0.5%, +2 Hours",4580 µg/mL
same,Concentration of Carnosic,"[3]; Citric 0.5%, +5 Hours",4530 µg/mL
same,Concentration of Carnosic,"[3]; Citric 0.5%, +1 hour",4760 µg/mL
same,Concentration of Carnosic,"[3]; Citric 0.5%, +24 hour",4510 µg/mL
same,Concentration of Carnosic,"[3]; Citric 0.5%, +48 hours",4220 µg/mL
same,Concentration of Carnosic,"[3]; Citric 0.5%, Time Zero",4800 µg/mL
same,Concentration of Carnosic,"[3]; Citric 1%, +2 Hours",4530 µg/mL
same,Concentration of Carnosic,"[3]; Citric 1%, +5 Hours",4560 µg/mL
same,Concentration of Carnosic,"[3]; Citric 1%, +1 hour",4760 µg/mL
same,Concentration of Carnosic,"[3]; Citric 1%, +24 hour",4560 µg/mL
same,Concentration of Carnosic,"[3]; Citric 1%, +48 hours",4420 µg/mL
same,Concentration of Carnosic,"[3]; Citric 1%, Time Zero",4800 µg/mL
same,Concentration of Carnosic,"[3]; Control, acid 0%, +2 Hours",4420 µg/mL
same,Concentration of Carnosic,"[3]; Control, acid 0%, +5 Hours",4270 µg/mL
same,Concentration of Carnosic,"[3]; Control, acid 0%, +1 hour",4510 µg/mL
same,Concentration of Carnosic,"[3]; Control, acid 0%, +24 hour",3550 µg/mL
same,Concentration of Carnosic,"[3]; Control, acid 0%, +48 hours",2780 µg/mL
same,Concentration of Carnosic,"[3]; Control, acid 0%, Time Zero",4800 µg/mL
same,Concentration of Carnosic,"[3]; HCI 0.1%, +2 Hours",4680 µg/mL
same,Concentration of Carnosic,"[3]; HCI 0.1%, +5 Hours",4520 µg/mL
same,Concentration of Carnosic,"[3]; HCI 0.1%, +1 hour",4720 µg/mL
same,Concentration of Carnosic,"[3]; HCI 0.1%, +24 hour",3690 µg/mL
same,Concentration of Carnosic,"[3]; HCI 0.1%, +48 hours",2930 µg/mL
same,Concentration of Carnosic,"[3]; HCI 0.1%, Time Zero",4800 µg/mL
same,Concentration of Carnosic,"[3]; HCI 1%, +2 Hours",4720 µg/mL
same,Concentration of Carnosic,"[3]; HCI 1%, +5 Hours",4530 µg/mL
same,Concentration of Carnosic,"[3]; HCI 1%, +1 hour",4780 µg/mL
same,Concentration of Carnosic,"[3]; HCI 1%, +24 hour",4540 µg/mL
same,Concentration of Carnosic,"[3]; HCI 1%, +48 hours",4390 µg/mL
same,Concentration of Carnosic,"[3]; HCI 1%, Time Zero",4800 µg/mL
same,Concentration of Carnosic,"[3]; HCI 2%, +2 Hours",4700 µg/mL
same,Concentration of Carnosic,"[3]; HCI 2%, +5 Hours",4580 µg/mL
same,Concentration of Carnosic,"[3]; HCI 2%, +1 hour",4760 µg/mL
same,Concentration of Carnosic,"[3]; HCI 2%, +24 hour",4460 µg/mL
same,Concentration of Carnosic,"[3]; HCI 2%, +48 hours",4420 µg/mL
same,Concentration of Carnosic,"[3]; HCI 2%, Time Zero",4800 µg/mL
same,Concentration of Carnosic,"[3]; Phosphoric 1%, +2 Hours",4790 µg/mL
same,Concentration of Carnosic,"[3]; Phosphoric 1%, +5 Hours",4760 µg/mL
same,Concentration of Carnosic,"[3]; Phosphoric 1%, +1 hour",4820 µg/mL
same,Concentration of Carnosic,"[3]; Phosphoric 1%, +24 hour",4780 µg/mL
same,Concentration of Carnosic,"[3]; Phosphoric 1%, +48 hours",4790 µg/mL
same,Concentration of Carnosic,"[3]; Phosphoric 1%, Time Zero",4800 µg/mL
same,Concentration of Carnosic,"[3]; Phosphoric 2%, +2 Hours",4790 µg/mL
same,Concentration of Carnosic,"[3]; Phosphoric 2%, +5 Hours",4750 µg/mL
same,Concentration of Carnosic,"[3]; Phosphoric 2%, +1 hour",4770 µg/mL
same,Concentration of Carnosic,"[3]; Phosphoric 2%, +24 hour",4810 µg/mL
same,Concentration of Carnosic,"[3]; Phosphoric 2%, +48 hours",4780 µg/mL
same,Concentration of Carnosic,"[3]; Phosphoric 2%, Time Zero",4800 µg/mL
same,period for which carnosic acid is stable,"[3]; in acidic polar solution containing water, lower alkyl alcohol and acid",more than 24 hours
same,decrease of carnosic acid,[3]; lack of acid,50%
same,change in concentration of carnosic acid,[4],marked decrease
